Measured values published in paper PMC5986712, “Aminobenzothiazole derivatives stabilize the thermolabile p53 cancer mutant Y220C and show anticancer activity in p53-Y220C cell lines” (European Journal of Medicinal Chemistry, 2018).

How the values were obtained:
[1] = biological target: T1, stabilized p53-Y220C DBD (residues 94–312) (Homo sapiens, UniProt P04637, M133L/N239Y/N268D/V203A/Y220C); assay: Differential scanning fluorimetry (DSF), thermal stabilization of Y220C; assay type: binding; conditions: 8 μM protein, 10 × SYPRO Orange, 250 μM ligand
T1 construct: Stabilized p53-Y220C DBD (residues 94–312) was expressed and purified; 6xHis / lipoyl domain / TEV protease cleavage site (N, cleaved yes); made in house; host or cells: E. coli C41
Method: DSF was performed as described. […] All samples were measured in triplicate.

[2] = biological target: T1, stabilized p53-Y220C DBD (residues 94–312); assay: Isothermal titration calorimetry (ITC); assay type: binding; conditions: for Kd: ITC
Method: Isothermal Titration Calorimetry (ITC). ITC experiments were conducted as described. The cell unit contained 50 μM protein in a 25 mM KPi (pH 7.2), 150 mM NaCl, 1 mM TCEP, and 5% (v/v) DMSO assay buffer. The syringe contained 2–5 mM compound in the same buffer.

[3] = Solubility (qualitative observation); assay type: physicochemical
[4] = system: NUGC3 cells (p53-Y220C); assay: Cell viability assay (CellTiter-Fluor / CellTiter-Glo 2.0), NUGC3; assay type: cell-based, human; conditions: Homo sapiens, NUGC-3; 72 h, Y220C cell line
Method: (§1) We also envisaged that masking the carboxylate of MB710 as a simple ethylamide MB725 might influence cell permeability and uptake of the scaffold.
(§2) All cell lines were cultured as previously described. Cell viability was measured in quadruplicate (technical replicates) using the CellTiter-Fluor or CellTiter-Glo 2.0 cell viability assay kits (Promega, USA) as previously described.

[5] = system: NUGC4 cells (wild-type p53); assay: Cell viability assay, NUGC4; assay type: cell-based; conditions: Homo sapiens, NUGC-4; 72 h, p53 WT
Method: as §1, §2

[6] = system: WI38 cells (non-cancerous fibroblast, p53 WT); assay: Cell viability assay, WI38; conditions: Homo sapiens, WI-38, 72 h, read-out: IC50 WI38
Method: (§3) All cell lines were cultured as previously described [9]. Cell viability was measured in quadruplicate (technical replicates) using the CellTiter-Fluor or CellTiter-Glo 2.0 cell viability assay kits (Promega, USA) as previously described [9].

[7] = system: BXPC-3 cells (p53-Y220C); assay: Cell viability assay, BXPC3; conditions: Homo sapiens, BXPC-3, 72 h, read-out: IC50 BXPC3
Method: as §3

[8] = system: p53 cancer mutant Y220C; assay: Binding affinity to the Y220C pocket, values taken from earlier papers (ITC/NMR); conditions: Kd ratio

Row | SMILES | ΔTm at 250 µM [1] [°C] | Kd [2] [µM] | also measured
1 | CN1CCN(C(=O)c2cc(I)c(-n3cccc3)c(I)c2O)CC1 [Compound 11, (2-hydroxy-3,5-diiodo-4-(1H-pyrrol-1-yl)phenyl)(4-methylpiperazin-1-yl)methanone] | 1.2 | 30 | 
2 | CCN(CC)c1nc2c(C(=O)OC)c(O)c(I)c(-n3cccc3)c2s1 [Compound 71, Methyl 2-(diethylamino)-5-hydroxy-6-iodo-7-(1H-pyrrol-1-yl)benzo[d]thiazole-4-carboxylate] |  |  | solubility (in words) [3]: reduced solubility
3 | O=c1[nH][nH]c2c(I)c(-n3cccc3)c(I)cc12 [Compound 21, 5,7-diiodo-6-(1H-pyrrol-1-yl)-1,2-dihydro-3H-indazol-3-one] | 1.5 | 50 | 
4 | CCN(CC)C1CCN(Cc2cc(C#CCNc3ccccc3)cc(I)c2O)CC1 [Compound 3] |  |  | IC50 [4]: 6 µM; IC50 [5]: 9 µM; IC50 [6]: 7 µM; IC50 [7]: 11 µM
5 | O=C(O)c1cc(-c2ccccc2)c(-n2cccc2)c(I)c1O [Compound 33, 4-hydroxy-5-iodo-6-(1H-pyrrol-1-yl)-[1,1'-biphenyl]-3-carboxylic acid] | 1 | 306 | 
6 | C=CCOc1cc(C(=O)O)c(O)c(I)c1-n1cccc1 [Compound 51, 5-(allyloxy)-2-hydroxy-3-iodo-4-(1H-pyrrol-1-yl)benzoic acid] | 1.8 | 33 | 
7 | O=C(O)c1cc(I)cc(I)c1O [Compound 4, 2-hydroxy-3,5-diiodobenzoic acid, reference compound] |  |  | solubility (in words) [3]: water soluble
8 | O=C(O)c1cc(I)c(-n2cccc2)c(I)c1O [Compound 9, 2-hydroxy-3,5-diiodo-4-(1H-pyrrol-1-yl)benzoic acid] |  |  | fold more potent than parent fragment 4 [8]: 40 fold
9 | O=C(O)c1cc(-c2ccc(F)cc2)c(-n2cccc2)c(I)c1O [Compound 34, 4'-fluoro-4-hydroxy-5-iodo-6-(1H-pyrrol-1-yl)-[1,1'-biphenyl]-3-carboxylic acid] | 0.8 | 113 | 
10 | CC(C)COc1cc(C(=O)O)c(O)c(I)c1-n1cccc1 [Compound 56, 2-hydroxy-3-iodo-5-isobutoxy-4-(1H-pyrrol-1-yl)benzoic acid] | 1.4 | 30 | 
11 | Cn1cc(-c2ccccc2)c(-n2cccc2)n1 [Compound 2] |  |  | IC50 [4]: 43 µM; IC50 [5]: > 120 µM; IC50 [6]: ~120 µM; IC50 [7]: 57 µM
12 | O=C(O)c1cc(OCCc2ccccc2)c(-n2cccc2)c(I)c1O [Compound 55, 2-hydroxy-3-iodo-5-phenethoxy-4-(1H-pyrrol-1-yl)benzoic acid] | 1 | 116 | 
13 | O=C(O)c1cc(OCCC(F)(F)F)c(-n2cccc2)c(I)c1O [Compound 53, 2-hydroxy-3-iodo-4-(1H-pyrrol-1-yl)-5-(3,3,3-trifluoropropoxy)benzoic acid] | 1.4 | 108 | 

Continued, in another order:

Row | ΔTm at 250 µM [1] [°C] | Kd [2] [µM] | SMILES | also measured
14 | 0.8 | 139 | O=C(NO)c1cc(I)c(-n2cccc2)c(I)c1O [Compound 15, N,2-dihydroxy-3,5-diiodo-4-(1H-pyrrol-1-yl)benzamide] | 
15 | 0.9 | 60 | CN(C)Cc1cc(I)c(-n2cccc2)c(I)c1O [Compound 17, 6-((dimethylamino)methyl)-2,4-diiodo-3-(1H-pyrrol-1-yl)phenol] | 
16 | 1 | 122 | COc1ccc(-c2cc(C(=O)O)c(O)c(I)c2-n2cccc2)cc1 [Compound 35, 4-hydroxy-5-iodo-4'-methoxy-6-(1H-pyrrol-1-yl)-[1,1'-biphenyl]-3-carboxylic acid] | 
17 | 1.3 |  | CN(C)CCNC(=O)c1cc(I)c(-n2cccc2)c(I)c1O [Compound 10, N-(2-(dimethylamino)ethyl)-2-hydroxy-3,5-diiodo-4-(1H-pyrrol-1-yl)benzamide] | solubility (in words) [3]: substantially less soluble than carboxylic acid 9
18 | 1.3 | 63 | CCOc1cc(C(=O)O)c(O)c(I)c1-n1cccc1 [Compound 49, 5-ethoxy-2-hydroxy-3-iodo-4-(1H-pyrrol-1-yl)benzoic acid] | times less potent than the parent iodine ([2]; Kd ratio versus parent iodine (21 μM)): 3
19 | 0.9 | 70 | CNC(=O)c1cc(I)c(-n2cccc2)c(I)c1O [Compound 12, 2-hydroxy-3,5-diiodo-N-methyl-4-(1H-pyrrol-1-yl)benzamide] | solubility (in words) [3]: substantially less soluble than carboxylic acid 9
20 | 0.6 | 726 | O=C(O)c1cc(OCCO)c(-n2cccc2)c(I)c1O [Compound 54, 2-hydroxy-5-(2-hydroxyethoxy)-3-iodo-4-(1H-pyrrol-1-yl)benzoic acid] | 
21 | -0.1 |  | COC(=O)c1cc(I)c(-n2cccc2)c(I)c1O [Compound 8, Methyl 2-hydroxy-3,5-diiodo-4-(1H-pyrrol-1-yl)benzoate] | 
